Measurements: EPA's ToxValDB 9.5 (doi:10.2903/j.efsa.2008.139r)

Legend:
[1] = test system: Typhlodromus pyri; experiment: LR50; higher = less toxic; details: not reported; mortality
[2] = test system: Colinus virginianus
[3] = test system: Rattus norvegicus
[4] = test system: Perdix sp.; details: acute; oral; unspecified; mortality
[5] = test system: Lepomis macrochirus; details: acute; mortality
[6] = test system: Apis mellifera; details: acute, mortality
[7] = test system: Tagia sp.; details: acute; duration: 14 days; mortality
[8] = test system: Oryctolagus sp.; details: developmental; development
[9] = test system: Canidae; details: oral, Dog Other, organ weight
[10] = test system: Daphnia magna; details: chronic/long-term
[11] = test system: Oncorhynchus mykiss; details: chronic/long-term

## CCO/N=C(\CC)C1=C(O)CC(c2c(C)cc(C)cc2C)CC1=O (stereo unspecified) [Tralkoxydim]
[1]
  LR50: > 450 g/ha
[2]; acute, oral, diet, mortality
  LC50: 1020 mg/kg-day
[2]; reproduction developmental
  NOEC: 14.3 mg/kg-day
[3]; acute, oral, mortality
  LD50: 934 mg/kg-day
[3]; developmental, development
  NOAEL: 1 mg/kg-day
[3]; reproduction developmental, body weight
  NOAEL: 18.2 mg/kg-day
[4]
  LD50: 2020 mg/kg-day
[5]
  LC50: > 6.1 µg/mL
[6]; dermal
  LD50: > 100 µg/piece
[6]; oral, unspecified
  LD50: > 117 µg/piece
[7]
  LC50: > 1000 mg/kg
[8]
  NOEC: 20 mg/kg-day
[9]; chronic, duration: 1 years
  NOAEL: 0.5 mg/kg-day
[9]; subchronic, duration: 90 days
  NOAEL: 0.5 mg/kg-day
[10]
  NOEC: 2.1 mg/L
[11]
  NOEC: 4.6 mg/L
